Drawing on BindingDB's records for patent US20240270732 (Chengdu Biobel Biotechnology Co., 2024), this text covers IC50 for 35 compounds.

The target of this assay is T1, Receptor-interacting serine/threonine-protein kinase 1 (Homo sapiens, UniProt Q13546).
T1 sequence (Q13546 whole entry): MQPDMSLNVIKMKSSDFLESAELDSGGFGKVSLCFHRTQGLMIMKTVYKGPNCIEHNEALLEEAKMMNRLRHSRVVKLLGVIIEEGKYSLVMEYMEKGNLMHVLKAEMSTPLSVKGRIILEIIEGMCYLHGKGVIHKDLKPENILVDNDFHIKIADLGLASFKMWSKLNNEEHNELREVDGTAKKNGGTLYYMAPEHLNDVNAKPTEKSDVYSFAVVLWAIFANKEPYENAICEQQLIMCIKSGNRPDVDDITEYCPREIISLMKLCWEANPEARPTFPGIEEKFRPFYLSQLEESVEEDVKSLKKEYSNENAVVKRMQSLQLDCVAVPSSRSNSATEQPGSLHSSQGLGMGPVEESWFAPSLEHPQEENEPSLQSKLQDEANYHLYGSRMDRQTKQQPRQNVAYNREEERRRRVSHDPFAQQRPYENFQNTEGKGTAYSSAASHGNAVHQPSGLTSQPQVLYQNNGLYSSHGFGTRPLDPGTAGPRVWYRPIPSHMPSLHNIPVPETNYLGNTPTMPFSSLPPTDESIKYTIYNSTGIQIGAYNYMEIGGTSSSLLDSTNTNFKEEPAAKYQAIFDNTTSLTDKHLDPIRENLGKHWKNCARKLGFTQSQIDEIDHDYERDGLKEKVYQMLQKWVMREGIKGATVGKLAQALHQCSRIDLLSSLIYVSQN
Briefly: Inhibitory Activity Assay. On the procedure:
The compound of the present invention and the control compound were dissolved in the assay buffer (50 mM Hepes pH 7.5, 50 mM NaCl, 30 mM MgCl2, 1 mM DTT, 0.02% CHAPS, 0.5 mg/mL BSA), and diluted in a ratio of 1:1.5 using a 22-point titration (high concentration 2 μM), and then added to a 384-well plate. […] After completion of the reaction, 5 μL of ADP-Glo reagent containing 0.02% CHAPS was added to each well and incubated at room temperature for 1 h to terminate the kinase reaction and use up all remaining ATP. Then, 5 μL of ADP-Glo detection solution containing 0.02% CHAPS was added to each well and incubated at room temperature for 30 min to measure the emittance intensity.
Take `CN1C(=O)[C@@H](NC(=O)c2ncn(Cc3ccccc3)n2)COc2ccc(C#CCN3CCN(CC#CC#CCN4CCN(CC#Cc5ccc6c(c5)N(C)C(=O)[C@@H](NC(=O)c5ncn(Cc7ccccc7)n5)CO6)CC4)CC3)cc21` [US20240270732, Compound I-94]: it took 6.16 nM to reach half-maximal inhibition (IC50).
Regarding `CN1C(=O)[C@@H](NC(=O)c2n[nH]c(Cc3ccccc3)n2)COc2ccc(CCCN3CCN(CCCc4ccc5c(c4)N(C)C(=O)[C@@H](NC(=O)c4n[nH]c(Cc6ccccc6)n4)CO5)CC3)cc21` [US20240270732, Compound I-123], the midpoint of inhibition, the IC50, lay at 3.17 nM.
Consider `C[C@H]1Oc2ccc(C#CCN3CCN(CC#Cc4ccc5c(c4)N(C)C(=O)[C@@H](NC(=O)c4ncn(Cc6ccccc6)n4)[C@@H](C)O5)CC3)cc2N(C)C(=O)[C@H]1NC(=O)c1cn(Cc2ccccc2)cn1` [US20240270732, Compound I-27], for which half-maximal inhibition (IC50) required 4 nM.
For `CC(O)C#Cc1ccc2c(c1)N(C)C(=O)[C@@H](NC(=O)c1n[nH]c(Cc3ccccc3)n1)[C@@H](C)O2` (stereo not given in full) [US20240270732, Compound I-103] the value was 10.2 nM; for `C#CCN1CCN(CC#Cc2ccc3c(c2)N(C)C(=O)[C@@H](NC(=O)c2n[nH]c(Cc4ccccc4)n2)[C@@H](C)O3)CC1` [US20240270732, Compound I-14], 4.79 nM; for `C[C@H]1Oc2ccc(C#CCN3CCN(CC#Cc4ccc5c(c4)NC(=O)[C@@H](NC(=O)c4n[nH]c(Cc6ccccc6)n4)[C@@H](C)O5)CC3)cc2NC(=O)[C@H]1NC(=O)c1n[nH]c(Cc2ccccc2)n1` [US20240270732, Compound I-17], 3.56 nM.
In the case of `C#CCN1CCN(CC#Cc2ccc3c(c2)N(C)C(=O)[C@@H](NC(=O)c2cc(Cc4ccccc4)on2)[C@@H](C)O3)CC1` [US20240270732, Compound I-45] it was 14.2 nM.
Turning to `COCCOCCOCCOCCOCC#Cc1ccc2c(c1)N(C)C(=O)[C@@H](NC(=O)c1n[nH]c(Cc3ccccc3)n1)[C@@H](C)O2` [US20240270732, Compound I-99], inhibition was half-maximal at 2.39 nM (IC50).
On to `CN(CCCC#Cc1ccc2c(c1)N(C)C(=O)[C@@H](NC(=O)c1n[nH]c(Cc3ccccc3)n1)CO2)CCCC#Cc1ccc2c(c1)N(C)C(=O)[C@@H](NC(=O)c1n[nH]c(Cc3ccccc3)n1)CO2` [US20240270732, Compound I-96], for which the IC50 – broadly, the concentration that inhibits the measured activity by half – is 18.5 nM.
Compound `COCCOCCOCCOCCOCC#Cc1ccc2c(c1)N(C)C(=O)[C@@H](NC(=O)c1n[nH]c(Cc3ccccc3)n1)CO2` [US20240270732, Compound I-100] returned an IC50 of 1.47 nM. This IC50 is about 13-fold lower than that of the compound before.
In the case of `C#CCN1CCN(CC#Cc2ccc3c(c2)NC(=O)[C@@H](NC(=O)c2n[nH]c(Cc4ccccc4)n2)[C@@H](C)O3)CC1` [US20240270732, Compound I-16] it was 5.59 nM; in that of `C[C@H]1Oc2ccc(C#CCN3CCN(CC#Cc4ccc5c(c4)N(C)C(=O)[C@@H](NC(=O)c4n[nH]c(Cc6cccnc6)n4)[C@@H](C)O5)CC3)cc2N(C)C(=O)[C@H]1NC(=O)c1n[nH]c(Cc2cccnc2)n1` [US20240270732, Compound I-68], 16 nM.
In the case of `C[C@H]1Oc2ccc(C#CCCCN(C)CCCC#Cc3ccc4c(c3)N(C)C(=O)[C@@H](NC(=O)c3n[nH]c(Cc5ccccc5)n3)[C@@H](C)O4)cc2N(C)C(=O)[C@H]1NC(=O)c1n[nH]c(Cc2ccccc2)n1` [US20240270732, Compound I-95] it was 19.8 nM.
`C[C@H]1Oc2ccc(C#Cc3cccc([N+](=O)[O-])c3)cc2N(C)C(=O)[C@H]1NC(=O)c1ncn(Cc2ccccc2)n1` [US20240270732, Compound I-116]: the IC50 stood at 7.99 nM.
Take `C[C@H]1Oc2ccc(C#CCN3CCN(CC#Cc4ccc5c(c4)N(C)C(=O)[C@@H](NC(=O)c4ncn(Cc6ccccc6)n4)[C@@H](C)O5)CC3)cc2N(C)C(=O)[C@H]1NC(=O)c1n[nH]c(Cc2ccccc2)n1` [US20240270732, Compound I-4]: the IC50 was 6.68 nM. The IC50 values of the last two compounds are within 1.5-fold of each other.
Take `C#CCN1CCN(CC#Cc2ccc3c(c2)N(C)C(=O)[C@@H](NC(=O)c2n[nH]c(Cc4cccnc4)n2)[C@@H](C)O3)CC1` [US20240270732, Compound I-67]: the IC50 is 14.6 nM. Compared with the last compound, the IC50 is about 2.2-fold higher.
`C[C@H]1Oc2ccc(C#CCCCCC(=O)O)cc2N(C)C(=O)[C@H]1NC(=O)c1n[nH]c(Cc2ccccc2)n1` [US20240270732, Compound I-107] showed an IC50 of 19.9 nM.
The compound `CN1C(=O)[C@@H](NC(=O)c2ncn(Cc3ccccc3)n2)COc2ccc(C#CCN3CCN(CC#Cc4ccc5c(c4)N(C)C(=O)[C@@H](NC(=O)c4ncn(Cc6ccccc6)n4)CO5)CC3)cc21` [US20240270732, Compound I-32] showed an IC50 of 3.08 nM.
In the case of `C[C@H]1Oc2ccc(C#CCCO)cc2N(C)C(=O)[C@H]1NC(=O)c1n[nH]c(Cc2ccccc2)n1` [US20240270732, Compound I-105] it was 4.85 nM; in that of `COCCOCCOCCOCCOCC#Cc1ccc2c(c1)N(C)C(=O)[C@@H](NC(=O)c1ncn(Cc3ccccc3)n1)CO2` [US20240270732, Compound I-102], 1.88 nM.
In the case of `C[C@H]1Oc2ccc(C#Cc3cccc(S(=O)(=O)O)c3)cc2N(C)C(=O)[C@H]1NC(=O)c1n[nH]c(Cc2ccccc2)n1` [US20240270732, Compound I-113] it was 9.35 nM; in that of `CN1C(=O)[C@@H](NC(=O)c2ncn(Cc3ccccc3)n2)COc2ccc(C#CCOCCOCCOCCOCCOCC#Cc3ccc4c(c3)N(C)C(=O)[C@@H](NC(=O)c3ncn(Cc5ccccc5)n3)CO4)cc21` [US20240270732, Compound I-85-1], 7.49 nM; in that of `C#CCN1CCN(CC#Cc2ccc3c(c2)N(C)C(=O)[C@@H](NC(=O)c2cn(Cc4ccccc4)cn2)CO3)CC1` [US20240270732, Compound I-61], 8.43 nM.
In the case of `O=C(N[C@H]1COc2ccc(C#CCN3CCN(CC#Cc4ccc5c(c4)NC(=O)[C@@H](NC(=O)c4n[nH]c(Cc6ccccc6)n4)CO5)CC3)cc2NC1=O)c1n[nH]c(Cc2ccccc2)n1` [US20240270732, Compound I-21], the IC50 was 9.69 nM. The IC50 values of the last two compounds are within 1.5-fold of each other.
Consider `C[C@H]1Oc2ccc(C#CCN3CCN(CC#Cc4ccc5c(c4)N(C)C(=O)[C@@H](NC(=O)c4cn(Cc6ccccc6)cn4)[C@@H](C)O5)CC3)cc2N(C)C(=O)[C@H]1NC(=O)c1cn(Cc2ccccc2)cn1` [US20240270732, Compound I-60], for which the IC50 turned out to be 9.91 nM. This IC50 and that of the compound before are within 1.5-fold of each other.
The compound `CN(CCCC#Cc1ccc2c(c1)N(C)C(=O)[C@@H](NC(=O)c1ncn(Cc3ccccc3)n1)CO2)CCCC#Cc1ccc2c(c1)N(C)C(=O)[C@@H](NC(=O)c1ncn(Cc3ccccc3)n1)CO2` [US20240270732, Compound I-98] had an IC50 of 17 nM.
Compound `CN1C(=O)[C@@H](NC(=O)c2cn(Cc3ccccc3)cn2)COc2ccc(C#CCN3CCN(CC#Cc4ccc5c(c4)N(C)C(=O)[C@@H](NC(=O)c4cn(Cc6ccccc6)cn4)CO5)CC3)cc21` [US20240270732, Compound I-62] yielded an IC50 of 8.07 nM.
Consider `C[C@H]1Oc2ccc(C#CCN3CCN(CC#Cc4ccc5c(c4)N(C)C(=O)[C@@H](NC(=O)c4n[nH]c(Cc6cccc(N)c6)n4)[C@@H](C)O5)CC3)cc2N(C)C(=O)[C@H]1NC(=O)c1n[nH]c(Cc2cccc(N)c2)n1` [US20240270732, Compound I-72], for which the IC50 was found to be 22.1 nM.
In the case of `C[C@H]1Oc2ccc(C#Cc3ccncc3)cc2N(C)C(=O)[C@H]1NC(=O)c1ncn(Cc2ccccc2)n1` [US20240270732, Compound I-110] it was 4.73 nM.
Compound `C[C@H]1Oc2ccc(C#CCN3CCN(CC#Cc4ccc5c(c4)N(C)C(=O)[C@@H](NC(=O)c4n[nH]c(Cc6ccccc6)n4)[C@@H](C)O5)CC3)cc2N(C)C(=O)[C@H]1NC(=O)c1cn(Cc2ccccc2)cn1` [US20240270732, Compound I-8] displayed an IC50 of 9.5 nM.
In the case of `C[C@H]1Oc2ccc(C#CCN3CCN(CC#Cc4ccc5c(c4)N(C)C(=O)[C@@H](NC(=O)c4n[nH]c(Cc6ccccc6)n4)CO5)CC3)cc2N(C)C(=O)[C@H]1NC(=O)c1ncn(Cc2ccccc2)n1` [US20240270732, Compound I-12] it was 2.75 nM; in that of `C#CCN1CCN(CC#Cc2ccc3c(c2)N(C)C(=O)[C@@H](NC(=O)c2ncn(Cc4cccc(O)c4)n2)[C@@H](C)O3)CC1` [US20240270732, Compound I-75], 21 nM; in that of `C[C@H]1Oc2ccc(C#CCCCCC(=O)O)cc2N(C)C(=O)[C@H]1NC(=O)c1ncn(Cc2ccccc2)n1` [US20240270732, Compound I-108], 20.5 nM.
The compound `C[C@H]1Oc2ccc(C#CCN3CCN(CC#Cc4ccc5c(c4)N(C)C(=O)[C@@H](NC(=O)c4ncn(Cc6cccc(O)c6)n4)[C@@H](C)O5)CC3)cc2N(C)C(=O)[C@H]1NC(=O)c1ncn(Cc2cccc(O)c2)n1` [US20240270732, Compound I-76] showed an IC50 of 22.4 nM.
The compound `C#CCN1CCN(CC#Cc2ccc3c(c2)N(C)C(=O)[C@@H](NC(=O)c2cn(Cc4ccccc4)cn2)[C@@H](C)O3)CC1` [US20240270732, Compound I-59] returned an IC50 of 10.2 nM.
